From patent US11938103B2, “Potentiation of helminth treatment” (Elanco Tiergesundheit AG, priority 2018, dated 2024)

Tests used:
[1] = system: Fasciola hepatica (immature stage); assay: Efficacy against immature stage F. hepatica infection in cattle (Example 4); type: in vivo; details: single oral dose day 49, livers day 91 or 92, diamphenethide 60 mg/kg, clorsulon 5 mg/kg, combination 60 and 5 mg/kg; for % Efficacy using Arithmetic mean / % Efficacy using Geometric Mean: vs untreated control
Description: (§1) Doses were administered orally from suitably sized disposable syringes.
(§2) The fluke counts and body weights were log-transformed (after adding a constant of 1 to the fluke counts only) and the distribution of the transformed data checked to see if they satisfied the assumption of normal distribution.
(§3) Arithmetic means (Amean), geometric means (Gmean), median and ranges were summarized for fluke counts, fluke measurements and bodyweight. A constant of one was applied for calculation of geometric means of fluke counts.
(§4) The percentage efficacy for each treated group was calculated as follows: % Efficacy=100×(FCC−FCT)/FCC where FCC is the arithmetic mean fluke count of the control group and FCT is the arithmetic mean fluke count of the treated group. The formula was also applied using mean geometric fluke counts; these were calculated using log transformed data with 1 added as a constant to each fluke count and then subtracted following transformation.
(§5) Note that expected synergy is defined as: 1−Efficacy(expected without synergy)=(1−EfficacyD)×(1−EfficacyC).
This study was to assess the efficacy of diamphenethide (60 mg/kg) given concurrently with clorsulon (5 mg/kg), diamphenethide alone (60 mg/kg), and clorsulon alone (5 mg/kg) against F. hepatica in cattle with treatment on day 49. This was a controlled, blinded, randomized study.
(§6) On day 0, the calves were experimentally infected with a single isolate of approximately 382 Sunny Corner (Fashep-66) isolate F. hepatica metacercariae. The required number of metacerceriae were made up in 2% carboxymethyl cellulose. Syringes were checked post-infection for retained metacerceriae. The infection was administered orally and each infective dose was followed by water administered orally. The cattle were randomized into treatment groups on the basis of day 48 body weight and allocated to groups as denoted in Table 4.1.
Body weight was determined one day prior to treatment. All treatments were measured by volume and rounded to the nearest 0.1 mL. On day 49, and before feeding, the individual animals were treated once only with the treatment in Table 4.1. […] Untreated control animals were also fed at this time.
(§7) The liver with gall bladder and bile ducts intact were recovered from each animal on day 91 or 92 and processed for F. hepatica counts. The assessment of efficacy was based on the number of live fluke removed from the liver.

[2] = system: Fasciola hepatica (immature stage); assay: Efficacy against immature stage F. hepatica infection in sheep (Example 2); type: in vivo; details: single oral dose day 42, livers day 91, diamphenethide 40 mg/kg, clorsulon 3.5 mg/kg, combination 40 and 3.5 mg/kg; for % Efficacy using Arithmetic mean / % Efficacy using Geometric Mean: vs untreated control
Description: In the following examples, all animals were confirmed free of infection with F. hepatica and found clinically healthy by a veterinarian prior to enrollment in the study. Doses were administered orally from suitably sized disposable syringes. […] Differences between treatment groups were analyzed by analysis of variance methods (ANOVA), as the assumptions of normal distribution were satisfied for log-transformed fluke count and log-transformed bodyweight, as well as for (untransformed) fluke measurements. Arithmetic […]), geometric […]), median and ranges were summarized for fluke counts, fluke measurements and bodyweight. A constant of one was applied for calculation of geometric means of fluke counts. […] On day 0, the sheep were experimentally infected with a target of 200 “Sunny Corner” (laboratory strain reference […]. hepatica […]. The required number of […] prepared for infection in a water and 4% carboxymethylcellulose solution. Each infective dose was followed by water administered orally. Syringes were subsequently checked post-infection for retained […] was determined that the sheep were administered between 93.5% and 100% (98.3% on average) of the target infective dose. The sheep were randomized into treatment groups on the basis of day 41 body weight and allocated to groups as denoted in Table 2.1. Body weight was determined one day prior to treatments, which were measured by volume and rounded to the nearest 0.1 mL. On day 42, and before feeding, the individual animals were treated once only with the Treatment in Table 2.1. Once the animals had been treated they were returned to their pens and fed within one hour. Untreated control animals were also fed at this time. The liver with gall bladder and common bile duct intact were recovered on day 91 from each animal and processed for F. hepatica counts. The assessment of efficacy was based on the number of live fluke removed from the liver. An ANOVA model was used to compare fluke counts between treatment groups. The model was applied to the log-transformed counts. There was one fixed effect, treatment group.

[3] = system: liver flukes; details: cited from earlier work
[4] = system: Fasciola hepatica (early immature stage); assay: Efficacy against early immature stage F. hepatica infection in sheep (Example 3); type: in vivo; details: single oral dose day 14, livers day 91, diamphenethide 20 mg/kg, clorsulon 10 mg/kg, combination 20 and 10 mg/kg; for % Efficacy using Arithmetic mean / % Efficacy using Geometric Mean: vs untreated control
Description: as §1, §2, §3, §4, §5
This study was to assess the efficacy of diamphenethide (20 mg/kg) given concurrently with clorsulon (10 mg/kg), diamphenethide alone (20 mg/kg), and clorsulon alone (10 mg/kg) against F. hepatica in sheep with treatment on day 14. This was a controlled, blinded, randomized study using sheep.
On day 0, the sheep were experimentally infected with a target of 200 “Sunny Corner” (laboratory strain reference Fashep-66) F. hepatica metacercariae. The required number of metacercariae were prepared for infection in a water and 2% carboxymethylcellulose solution. Each infective dose was followed by water administered orally.
The sheep were randomized into treatment groups on the basis of day 13 body weight and allocated to groups as denoted in Table 3.1. Animals were treated on day 14 with a single dose as noted in Table 3.1.
Body weight was determined one day prior to treatments, which were measured by volume and rounded to the nearest 0.1 mL. On day 14, and before feeding, the individual animals were treated once only with the Treatment in Table 3.1. […] Untreated control animals were also fed at this time.
The liver with gall bladder and common bile duct intact were recovered on day 91 from each animal and processed for F. hepatica counts. The assessment of efficacy was based on the number of live fluke removed from the liver.
An ANOVA model was used to compare fluke counts between treatment groups. The model was applied to the log-transformed counts. There was one fixed effect, treatment group.

[5] = system: Fasciola hepatica (early immature stage); assay: Efficacy against early immature stage F. hepatica infection in cattle (Example 5); type: in vivo; details: single oral dose day 21, livers day 91 or 92, diamphenethide 40 mg/kg, clorsulon 7 mg/kg, combination 40 and 7 mg/kg; for % Efficacy using Arithmetic mean / % Efficacy using Geometric Mean: vs untreated control
Description: as §1, §2, §3, §4, §5
This study was to assess the efficacy of diamphenethide (40 mg/kg) given concurrently with clorsulon (7 mg/kg), diamphenethide alone (40 mg/kg), and clorsulon alone (7 mg/kg) against F. hepatica in cattle with treatment on day 21. This was a controlled, blinded, randomized study.
as §6, with “350” for “382”, “20” for “48”, “5.1.” for “4.1.”
Body weight was determined one day prior to treatment. All treatments were measured by volume and rounded to the nearest 0.1 mL. On day 21, and before feeding, the individual animals were treated once only with the treatment in Table […]. […] Untreated control animals were also fed at this time.
as §7

[6] = deacylation to DAMD; cited from earlier work
[7] = system: Fasciola hepatica; details: cited from earlier work

Nc1cc(C(Cl)=C(Cl)Cl)c(S(N)(=O)=O)cc1S(N)(=O)=O [Clorsulon, 4-amino-6-(1,2,2-trichloroethenyl)benzene-1,3-disulfonamide]
Fluke Count, Arithmetic mean [1]: 72.6 | Fluke Count, Geometric Mean [1]: 70.7 | % Efficacy using Arithmetic mean [1]: 13.6% | % Efficacy using Geometric Mean [1]: 15.3% | Fluke Count, Arithmetic mean [2]: 81.8 | Fluke Count, Geometric Mean [2]: 79.7 | % Efficacy using Arithmetic mean [2]: 9.3% | % Efficacy using Geometric Mean [2]: 8.4% | Effectiveness by host species ([3]; cattle versus sheep): more effective in cattle than in sheep | Effectiveness against mature flukes ([3]; mature flukes): effective against mature flukes | Fluke Count, Arithmetic mean [4]: 99.8 | Fluke Count, Geometric Mean [4]: 90.6 | % Efficacy using Arithmetic mean [4]: 28.2% | % Efficacy using Geometric Mean [4]: 34.0% | Fluke Count, Arithmetic mean [5]: 45.2 | Fluke Count, Geometric Mean [5]: 42.4 | % Efficacy using Arithmetic mean [5]: 42.2% | % Efficacy using Geometric Mean [5]: 42.1%

CC(=O)Nc1ccc(OCCOCCOc2ccc(NC(C)=O)cc2)cc1 [Diamphenethide, N-[4-[2-[2-(4-acetamidophenoxy)ethoxy]ethoxy]phenyl]acetamide]
Fluke Count, Arithmetic mean [1]: 73.8 | Fluke Count, Geometric Mean [1]: 61.8 | % Efficacy using Arithmetic mean [1]: 12.1% | % Efficacy using Geometric Mean [1]: 26.0% | Metabolism [6]: rapidly metabolized by deacylation | Fluke Count, Arithmetic mean [2]: 57.6 | Fluke Count, Geometric Mean [2]: 50.9 | % Efficacy using Arithmetic mean [2]: 36.1% | % Efficacy using Geometric Mean [2]: 41.5% | Effectiveness against early immature flukes ([3]; early immature flukes up to 6 weeks of age): highly effective | Activity against flukes as they develop to maturity ([3]; flukes developing to maturity): progressively lower activity | Fluke Count, Arithmetic mean [4]: 89.0 | Fluke Count, Geometric Mean [4]: 87.5 | % Efficacy using Arithmetic mean [4]: 40.0% | % Efficacy using Geometric Mean [4]: 36.3% | Fluke Count, Arithmetic mean [5]: 54.2 | Fluke Count, Geometric Mean [5]: 53.1 | % Efficacy using Arithmetic mean [5]: 30.7% | % Efficacy using Geometric Mean [5]: 27.5%

Cc1cc(C(C#N)c2ccc(Cl)cc2)c(Cl)cc1NC(=O)c1cc(I)cc(I)c1O (stereo not drawn) [closantel]
Side resistance in rafoxanide-resistant F. hepatica isolates ([7]; F. hepatica isolates, New South Wales): side resistance to closantel was evident

O=C(Nc1ccc(Oc2ccc(Cl)cc2)c(Cl)c1)c1cc(I)cc(I)c1O [rafoxanide]
Isolates showing resistance at recommended doses ([7]; ten of seventeen F. hepatica isolates from different geographical regions): 58.8%
